These are literature values, as cited in paper PMC7584476, “Safety and efficacy of BAY1436032 in IDH1-mutant AML: phase I study results” (Leukemia, 2020).

One data set deals with primary AML samples. The conditions noted are these: cited from earlier work.
For a further data set, the system named is mIDH1 AML. Details: method as in PMID 29860938. The following applies: cited from earlier work.

Where two headings read alike, the source gives them in different places.

As to `CC(C)(O)CNc1nc(Nc2ccnc(C(F)(F)F)c2)nc(-c2cccc(C(F)(F)F)n2)n1` [enasidenib], in the data set with primary AML samples, the “Number of colony-forming cells” value is reported as “increased”.

With `N#Cc1ccnc(N2C(=O)CC[C@H]2C(=O)N(c2cncc(F)c2)[C@H](C(=O)NC2CC(F)(F)C2)c2ccccc2Cl)c1` [ivosidenib], the “Number of colony-forming cells” value with primary AML samples (ref MH, unpublished) is “increased”. Also, in the data set on mIDH1 AML, the Half-life was 72 to 138 h, the “≥grade 3 TEAE IDH DS” value was 4% and the “≥grade 3 TEAE QT prolongation” value is 8%. The Median overall survival in the data set with mIDH1 AML (similar populations, 95% CI 6.7–10.2) was 8.8 months.
